Where two headings read alike, the source gives them in different places.
Tests used:
[1] = test system: endogenous LC3 in U2OS cells; experiment: Western blot of endogenous LC3 (LC3-II accumulation) in U2OS; type: cell-based; conditions: three hours, basally and in response to rapamycin-induced autophagy induction, FIG. 7
Method: For Western blotting, U2OS cells were seeded in 10 cm plates in 5A McCoy's with 10% FBS at 1×10^6 cells per plate. […] After treatment, cells were lysed [10 mM KPO4, 1 mM EDTA, 10 mM MgCl2, 5 mM EGTA, 50 mM bis-glycerophosphate, 0.5% NP40, 0.1% Brij35, 0.1% sodium deoxycholate, 1 mM NaVO4, 5 mM NaF, 2 mM DTT, and complete protease inhibitors (Sigma, P8340-5 mL)] and 50 μg of protein was resolved by SDS-PAGE. […] Proteins were detected with enhanced chemiluminescence or using the Odyssey machine and quantified (FIGS. 12, 15, 16, 7 and 11).

[2] = test system: U2OS cells stably expressing tfLC3; type: cell-based; conditions: for Effective Concentration (EC): concentration with statistically significant increase in puncta number over vehicle control, three hours
Method: U2OS cells stably expressing tfLC3 were seeded at 50,000 cells per well in 5A McCoy's with 10% FBS on number 1.5 coverglass in 24-well tissue culture dishes. After 24 hours, cells were treated with known autophagy controls rapamycin [100 nM] (Millipore, 553210-10 mg), bafilomycin A1 [100 nM] (AG Scientific, B-1183), AZD-8055 [100 nM](Selleck Chemicals, S1555), and CQ [50 μM] as well as autophagy inhibitors (CQ, QN, Example 7, and Example 27) at doses of 0.1 μM, 0.25 μM, 0.5 μM, 1 μM, 5 μM, 15 μM, 25 μM, and 50 μM for three hours. Cells were washed with 1×PBS, fixed with 3.7% formaldehyde, and nuclei were stained with Hoechst 33342 (2 μg/mL). Coverglass was inverted onto microscope slides using mounting gel. Cells were imaged using a 60× oil-immersion objective on a Nikon Eclipse Ti fluorescent microscope and 10 images at each dose were taken for quantification. Image processing and quantification were completed with the Nikon NIS Elements software. To quantify, images were deconvolved using a 2D blind deconvolution function with one iteration and settings of normal cell thickness and normal noise level. Regions of interest (ROI) were drawn around the edges of each cell. Intensity thresholds were set to include all pixels equal to or greater than the intensity above the mean background fluorescence using the separation feature and restrictions set for puncta size (FIG. 9). Objects within the threshold for each ROI were quantified using an automated object count function and exported for analysis. Although other parameters were also collected, the mean intensity of the objects was averaged between the 10 images of each dose, or approximately 50 cells (FIGS. 9B and 9C). Representative images were chosen for each dose and the lookup table (LUT) brightness' were set based on the mean intensity of the DMSO control (FIGS. 8A and 10A). The mean intensity of each image was divided by the mean intensity of the DMSO control to control for brightness and the LUTs were adjusted by the percent difference to avoid background and for consistent visualization. All other settings (gain, exposure time, and lamp strength) were kept the same across all conditions. […] Mean intensity was further chosen for quantification as it accurately represents both the increase in puncta number and area when the accumulation of autophagosomes partially fuse (FIG. 9C, 9D). Quantification of the red channel (RFP-LC3 puncta) was performed to determine the total autophagic vesicle population (both autophagosomes and autolysosomes).
Autophagy inhibition can be measured by fluorescent microscopy using cells expressing a tandem fluorescent (RFP-GFP) labeled LC3 sensor (tfLC3). Upon autophagosome nucleation, LC3 is localized to the autophagic membrane and the overlapping GFP and RFP fluorescence appears as yellow puncta. After the autophagosome matures, it fuses with the lysosome, forming an autolysosome. The GFP in this LC3 sensor is pH labile and becomes quenched by the acidic environment of the autolysosome. However, the RFP remains stable; therefore, autolysosomes are indicated by red puncta. Accordingly, when autophagy is inhibited at the final stage (completion), the abundance of yellow puncta is expected to increase proportionally to the level of autophagy inhibition.
Cells were then fixed and imaged by fluorescent microscopy.

[3] = test system: lysosomes (LAMP1, LysoTracker Red) in U2OS cells; experiment: Lysosome analysis by fluorescent microscopy (LAMP1 / LysoTracker Red); type: cell-based; conditions: 3 μM for 3 hours
Method: To determine deacidification of the lysosome, cells were incubated with LysoTracker Red, a dye that localizes to the lysosome based on the […] of the compartment. If the lysosome is no longer acidic, there is a loss in the amount of LysoTracker Red staining. Lysosomal inhibition was further determined by immunofluorescence of lysosome-associated membrane protein-1 (LAMP1). If the lysosome is inhibited, lysosomal turnover should decrease and an increase in the amount of LAMP1 staining would be apparent. U2OS cells were treated with Example 7 or Example 26 at 3 μM for 3 hours, supplementing LysoTracker Red for the final hour.
Using image analysis software, the mean intensities of both the LAMP1 and LysoTracker Red staining were measured and represent altered intensity level between treatments on intensity plots. Individual points were measured using a line scan on the image analysis software, which measures the intensity across the path of a line at any given point. Not only does the presence of LAMP1 positive membranes increases, but the intensity in LAMP1 staining also increases with Example 7 and Example 26 treatment. The inverse relationship in intensity holds true for LysoTracker Red staining.
U2OS cells were seeded at 5×10^4 cells per well in 5A McCoy's with 10% FBS on number 1.5 coverglass discs in 24-well tissue culture dishes. After 24 hours, cells were treated with 3 μM CQ, QN, VATG-027, or VATG-032 for three hours. An hour prior to fixation, media was supplemented with LysoTracker Red added at 100 nM (Invitrogen, L7528). Cells were washed with 1×PBS, fixed with 3.7% formaldehyde, permeabilized with 0.2% Triton-X 100, and blocked with 3% bovine serum albumin (BSA) in PBS. LAMP1 antibody (Santa Cruz, sc-18821) was added at 1:1000 for 16 hours at 4° C. followed by Alexa-Fluor-488-conjugated anti-mouse IgG (Invitrogen, A11008) 1:5000 for 1 hour at room temperature. Nuclei were stained with Hoechst 33342 (2 μg/mL). Coverglass discs were inverted onto a microscope slide using mounting gel. The microscope slides were imaged using a 60× oil-immersion objective on a Nikon Eclipse Ti fluorescent microscope. Intensity of the red and green channels were visualized using the intensity plot on the Nikon NIS Elements software (FIG. 13B). […] The RGB threshold of only the color […] indicating both LAMP1 and LysoTracker Red positivity was performed and data for analysis. The Mander's co-localization coefficient was produced from the Nikon NIS Elements software.
Next, the inventors sought to confirm the inhibition of lysosomal turnover induced by the compounds of the present invention, for example, those of Formula III, Formula III(a), Formula V, Formula V(a), Formula A, Formula A^1, Formula A^2, Formula A^3, or a pharmaceutically acceptable salt thereof, by evaluating the abundance of endogenous lysosomal protein, LAMP1. In addition, lysosome acidity was assessed by co-staining cells with LysoTracker Red, a dye that localizes to the lysosome based on the low pH. Cells were treated with 3 μM CQ, QN, Example 7, or Example 27 for 3 hours, with LysoTracker Red supplemented for the final hour. Following, cells were fixed and stained with endogenous LAMP1 antibodies and both LAMP1 and LysoTracker Red imaged. […] To quantify this phenotype, the co-localization of LAMP1 and LysoTracker Red was measured using image analysis software. […] In addition, Mander's colocalization coefficient (MCC) values were determined for each treatment (FIG. 13C). Not only does the presence of LAMP1-positive membranes increase, but the intensity of LAMP1 staining also increases with QN, Example 7, and Example 27 treatment (FIG. 13C).

[4] = test system: A375 cells; type: cell-based, human; conditions: A375 soft agar; single compound at IC10
Excerpt: After three weeks of treatment, cells were fixed and stained in 1% paraformaldehyde in 1×PBS containing 0.005% crystal violet overnight. Cells were destained with multiple washes of 1×PBS to remove background staining. Plates were scanned and images quantified using Nikon NIS Elements software. To quantify, each image was sharpened and an ROI of equal size drawn around each well. Intensity thresholds were set to include all pixels equal to or greater than the intensity of the mean background fluorescence. Objects within the threshold of each ROI were quantified using an automated object count function and exported for analysis. Object number was quantified to denote total colony formation. […] Additivity was established when the expected viability determined by the Bliss independence model was equal to the actual viability. This model was chosen since the effects of both compounds are mutually non-exclusive and follow first order Michaelis-Menten kinetics.
To determine if the effects of each combination were more than, less than, or equal to additive, predictions for additivity were made using the Bliss Independence (Table 7), as disclosed in Yan H, Zhang B, Li S, Zhao Q. A formal model for analyzing drug combination effects and its application in TNF-alpha-induced NFkappaB pathway. BMC Syst. […] Drug combination studies and their synergy quantification using the Chou-Talalay method.

Row | Compound | accumulation of LC3-II [1] | Potency (EC/ECCQ) [2] | Effective Concentration (EC) [2] | other results
1 | piperaquine | induce the accumulation of LC3-II | 0.25 | 50 µM | 
2 | CCN(CC)Cc1cc(Nc2ccnc3cc(Cl)ccc23)ccc1O [Amodiaquine, amodiaquine] | induce the accumulation of LC3-II | 1 | 15 µM | 
3 | CCN1CCC(Nc2c3c(nc4cc(Cl)ccc24)CCCC3)CC1 [Example 26, 6-Chloro-N-(1-ethylpiperidin-4-yl)-1,2,3,4-tetrahydroacridin-9-amine] |  |  |  | LAMP1 staining [3]: increases; LysoTracker Red staining ([3]; LysoTracker Red for the final hour): less intense
4 | COc1ccc(-c2ccc3c(N4CCOC[C@@H]4C)nc(N4CCOC[C@@H]4C)nc3n2)cc1CO [AZD-8055, reference compound] |  |  |  | Relative Growth Inhibition Compound B [4]: 0.12
5 | COc1cc(NC(C)CCCN)c2ncccc2c1 (stereo not drawn) [Primaquine, primaquine] | induce the accumulation of LC3-II |  | 50 µM | Potency (EC/ECCQ) ([2]; relative potency score versus chloroquine, greater than one = more potent than CQ): 0.25

— patent US20170000784A1, “Autophagy Inhibitors” (priority 2013, published 2017)
